This is an account of results in US8119630B2 (Arrow Therapeutics Limited, priority 2002, dated 2012).

Read-outs that look alike come from different tables or passages of the source. A value given as a limit tells only on which side of the number the result lay.

The test system of data set [1] is RSV. Description: XTT assay, RSV-infected Vero cells. In kind it is cell-based, Respiratory Syncytial Virus (RSV). The note with it: Vero cells infected with RSV, m.o.i.≈0.2, 6 days at 33° C. How it is done:
Examples 1 to 74 and 83 to 124 were tested using the following protocol.
(§1) The inner 60 wells of 96 well tissue culture plates were seeded with Vero cells at 3×10^4 cells/well (1×10^4 cells/well for toxicity studies) in 100 or 150 μl of medium and incubated at 37° C. overnight or until nearing confluency. For primary screen, 25 μl compounds were added directly to 100 μl medium in single wells to duplicate plates. A third plate was prepared for simultaneous toxicity investigation.
(§2) For follow-up investigation, 70 μl of compound in duplicate wells were added directly to culture medium at 3.2× final concentration and ½ log serially diluted down columns of plate. A duplicate plate was prepared for simultaneous toxicity investigation.
Cells were infected with 25 μl RSV to give m.o.i.≈0.2. Some 100 μl of sterile distilled water were added to the outer wells of the plate and incubated at 33° C. for 6 days. Some 0.25 μl/ml PMS were added to stock XTT solution, final conc. […]. Then 25 μl warmed XTT/PMS solution were added to each well and incubated for 5 hours at 37° C. Plates were shaken (DynaTech Vari-Shaker) vigorously for 10 mins and allowed to cool for 15 mins before sealing. Absorbance at 450 nm was measured and data analysed using Microsoft Excel software.
Maximum OD450nm reading (uninfected, untreated control cells) corresponded to 100% inhibition. Minimum OD450nm readings (infected control cells) corresponded to 0% inhibition. Log 10 concentration was plotted against OD450nm and IC50 (Table 1) values were calculated from either reading 50% value from graph or using regression analysis.

The test system of data set [2] is Vero cells. The data set is described as follows: Simultaneous toxicity investigation (XTT), Vero cells. The data set is classed as cell-based. On the set-up: unit not given here. The following applies: for TC50 (2d): Table 2, Examples 83 to 124, 2d; for TC50 (6d): Table 2, Examples 83 to 124, 6d. How it is done:
as §1, §2
Cells were infected with 25 μl RSV to give m.o.i.≈0.2. […] Some 0.25 μl/ml PMS were added to stock XTT solution, final conc. […]. Then 25 μl warmed XTT/PMS solution were added to each well and incubated for 5 hours at 37° C. Plates were shaken (DynaTech Vari-Shaker) vigorously for 10 mins and allowed to cool for 15 mins before sealing. Absorbance at 450 nm was measured and data analysed using Microsoft Excel software.

Where [3] appears, read: human respiratory syncytial virus, Vero, 144 h, read-out: XTT IC50 (uM), Table 1.
[4] abbreviates: human respiratory syncytial virus, Vero, 144 h, read-out: XTT IC50 (uM), Table 2, Examples 83 to 124.

As for “1-(2-Chloro-6-methyl-phenyl)-3-(2-oxo-5-phenyl-2,3-dihydro-1H-benzo[e][1,4]diazepin-3-yl)-urea [Example 121]”, the IC50 in data set [1] (Table 2, Examples 83 to 124, read-out: XTT IC50) is 4 µM. In data set [2], the “TC50 (2d)” value stood at 60 and the “TC50 (6d)” value is 60.
Regarding `O=C(NC1N=C(c2ccccc2)c2cc(Cl)ccc2NC1=O)C1CCCCC1` (centres unmarked) [Example 56, Cyclohexanecarboxylic acid (7-Chloro-2-oxo-5-phenyl-2,3-dihydro-1H-benzo[e][1,4]diazepin-3-yl)-amide], in data set [1] (setting [3]), the IC50 came out at 5 µM.
The same measure, in the same setting: in the case of `COc1ccccc1C(=O)NC1N=C(c2ccccc2)c2cc(Cl)ccc2NC1=O` (centres unmarked) [Example 57, N-(7-Chloro-2-oxo-5-phenyl-2,3-dihydro-1H-benzo[e][1,4]diazepin-3-yl)-2-methoxy-benzamide] it was 0.7 µM; in that of `COc1ccc(C(=O)NC2N=C(c3ccccc3)c3cc(Cl)ccc3NC2=O)cc1` (centres unmarked) [Example 58, N-(7-Chloro-2-oxo-5-phenyl-2,3-dihydro-1H-benzo[e][1,4]diazepin-3-yl)-4-methoxy-benzamide], 1.2 µM.
Same read-out and setting: the figure for `O=C(NC1N=C(c2ccccc2)c2cc(Cl)ccc2NC1=O)c1ccccc1[N+](=O)[O-]` (centres unmarked) [Example 59, N-(7-Chloro-2-oxo-5-phenyl-2,3-dihydro-1H-benzo[e][1,4]diazepin-3-yl)-2-nitro-benzamide] is 5 µM; for `COc1ccccc1CC(=O)NC1N=C(c2ccccc2)c2ccccc2NC1=O` (centres unmarked) [Example 60, 2-(2-Methoxy-phenyl)-N-(2-oxo-5-phenyl-2,3-dihydro-1H-benzo[e][1,4]diazepin-3-yl)-acetamide] it is 5 µM.
Same read-out and setting: in the case of `COc1cccc(CC(=O)NC2N=C(c3ccccc3)c3ccccc3NC2=O)c1` (centres unmarked) [Example 61, 2-(3-Methoxy-phenyl)-N-(2-oxo-5-phenyl-2,3-dihydro-1H-benzo[e][1,4]diazepin-3-yl)-acetamide] it was 3 µM.
In the case of `COc1ccc(CC(=O)NC2N=C(c3ccccc3)c3ccccc3NC2=O)cc1` (centres unmarked) [Example 62, 2-(4-Methoxy-phenyl)-N-(2-oxo-5-phenyl-2,3-dihydro-1H-benzo[e][1,4]diazepin-3-yl)-acetamide], the IC50 in data set [1] (setting [3]) worked out at 1.5 µM.
On the same count and under the same terms, the figure for `O=C(Cc1ccc([N+](=O)[O-])cc1)NC1N=C(c2ccccc2)c2ccccc2NC1=O` (centres unmarked) [Example 63, 2-(4-Nitro-phenyl)-N-(2-oxo-5-phenyl-2,3-dihydro-1H-benzo[e][1,4]diazepin-3-yl)-acetamide] is 1.7 µM.
Still for that read-out and setting: in the case of `O=C(Cc1cccc([N+](=O)[O-])c1)NC1N=C(c2ccccc2)c2ccccc2NC1=O` (centres unmarked) [Example 64, 2-(3-Nitro-phenyl)-N-(2-oxo-5-phenyl-2,3-dihydro-1H-benzo[e][1,4]diazepin-3-yl)-acetamide] it was 1 µM; in that of `O=C(Cc1ccccc1C(F)(F)F)NC1N=C(c2ccccc2)c2ccccc2NC1=O` (centres unmarked) [Example 65, N-(2-Oxo-5-phenyl-2,3-dihydro-1H-benzo[e][1,4]diazepin-3-yl)-2-(2-trifluoromethyl-phenyl)-acetamide], 2 µM; in that of `O=C(Cc1cccc(C(F)(F)F)c1)NC1N=C(c2ccccc2)c2ccccc2NC1=O` (centres unmarked) [Example 66, N-(2-Oxo-5-phenyl-2,3-dihydro-1H-benzo[e][1,4]diazepin-3-yl)-2-(3-trifluoromethyl-phenyl)-acetamide], 1.5 µM.
On the same count and under the same terms, the figure for `O=C(Cc1ccc(C(F)(F)F)cc1)NC1N=C(c2ccccc2)c2ccccc2NC1=O` (centres unmarked) [Example 67, N-(2-Oxo-5-phenyl-2,3-dihydro-1H-benzo[e][1,4]diazepin-3-yl)-2-(4-trifluoromethyl-phenyl)-acetamide] is 1.5 µM.
On to `COc1ccccc1NC(=O)NC1N=C(c2ccccc2)c2ccccc2NC1=O` (centres unmarked) [Example 68, (2-Methoxy-phenyl)-3-(2-oxo-5-phenyl-2,3-dihydro-1H-benzo[e][1,4]diazepin-3-yl)-urea], for which, in data set [1] (Table 1, read-out: XTT IC50), the IC50 was 1 µM.
Consider `O=C(Nc1ccccc1[N+](=O)[O-])NC1N=C(c2ccccc2)c2ccccc2NC1=O` (centres unmarked) [Example 69, 1-(2-Nitro-phenyl)-3-(2-oxo-5-phenyl-2,3-dihydro-1H-benzo[e][1,4]diazepin-3-yl)-urea], for which the IC50 in data set [1] (setting [3]) is 1.5 µM.
`O=C(Nc1ccccc1Cl)NC1N=C(c2ccccc2)c2ccccc2NC1=O` (centres unmarked) [Example 70, 1-(2-Chloro-phenyl)-3-(2-oxo-5-phenyl-2,3-dihydro-1H-benzo[e][1,4]diazepin-3-yl)-urea]: the IC50 in data set [1] (setting [3]) came to 1.5 µM.
In the case of `O=C(Nc1ccc(Cl)cc1)NC1N=C(c2ccccc2)c2ccccc2NC1=O` (centres unmarked) [Example 71, 1-(4-Chloro-phenyl)-3-(2-oxo-5-phenyl-2,3-dihydro-1H-benzo[e][1,4]diazepin-3-yl)-urea], in data set [1] (human respiratory syncytial virus, 144 h, Table 1, read-out: XTT IC50), the half-maximal inhibitory concentration (IC50) is 3 µM.
With `Cc1ccc(NC(=O)NC2N=C(c3ccccc3)c3ccccc3NC2=O)cc1` (centres unmarked) [Example 72, 1-(2-oxo-5-phenyl-2,3-dihydro-1H-benzo[e][1,4]diazepin-3-yl)-3-p-tolyl-urea], the IC50 in data set [1] (setting [3]) was determined as 1.5 µM.
The same measure, in the same setting: the figure for `O=C(Nc1ccccc1F)NC1N=C(c2ccccc2)c2ccccc2NC1=O` (centres unmarked) [Example 73a, 1-(2-Fluoro-phenyl)-3-(2-oxo-5-phenyl-2,3-dihydro-1H-benzo[e][1,4]diazepin-3-yl)-urea] is 1 µM; for `O=C(Nc1ccccc1F)N[C@H]1N=C(c2ccccc2)c2ccccc2NC1=O` [Example 73b, (S)-1-(2-Fluoro-phenyl)-3-(2-oxo-5-phenyl-2,3-dihydro-1H-benzo[e][1,4]diazepin-3-yl)-urea] it is 0.7 µM; for `O=C(Nc1ccc(F)cc1)NC1N=C(c2ccccc2)c2ccccc2NC1=O` (centres unmarked) [Example 74, 1-(4-Fluoro-phenyl)-3-(2-oxo-5-phenyl-2,3-dihydro-1H-benzo[e][1,4]diazepin-3-yl)-urea] it is 1.5 µM.
Consider `COc1ccc(C(=O)NC2N=C(c3ccccc3F)c3cc(Cl)ccc3NC2=O)cc1` (centres unmarked) [Example 83, N-[7-Chloro-5-(2-fluoro-phenyl)-2-oxo-2,3-dihydro-1H-benzo[e][1,4]diazepine-3-yl]-4-methoxy-benzamide], for which the IC50 in data set [1] (setting [4]) is 6 µM. In data set [2], the “TC50 (2d)” value was greater than 100 and the “TC50 (6d)” value was determined as 32.
The matching figures for `O=C(NCc1ccccc1F)NC1N=C(c2ccccc2)c2ccccc2NC1=O` (centres unmarked) [Example 84, 1-(2-Fluoro-benzyl)-3-(2-oxo-5-phenyl-2,3-dihydro-1H-benzo[e][1,4]diazepin-3-yl)-urea]: 2 µM, greater than 100 and greater than 100.
The matching figures for `COc1ccc(CNC(=O)NC2N=C(c3ccccc3)c3ccccc3NC2=O)cc1` (centres unmarked) [Example 85, 1-(4-Methoxy-benzyl)-3-(2-oxo-5-phenyl-2,3-dihydro-1H-benzo[e][1,4]diazepin-3-yl)-urea]: 4 µM, greater than 100 and greater than 100.
On the same counts, the results for `Cc1cccc(CNC(=O)NC2N=C(c3ccccc3)c3ccccc3NC2=O)c1` (centres unmarked) [Example 86, 1-(3-Methyl-benzyl)-3-(2-oxo-5-phenyl-2,3-dihydro-1H-benzo[e][1,4]diazepin-3-yl)-urea] are 3 µM, greater than 100 and 100.
Turning to `O=C(Nc1ccc(C(F)(F)F)cc1)NC1N=C(c2ccccc2)c2ccccc2NC1=O` (centres unmarked) [Example 87, 1-(2-Oxo-5-phenyl-2,3-dihydro-1H-benzo[e][1,4]diazepin-3-yl)-3-(4-trifluoromethyl-phenyl)-urea], in data set [1] (setting [4]), the IC50 worked out at 4 µM. Also, in data set [2], the “TC50 (2d)” value is reported as 50 and the “TC50 (6d)” value is on record as 50.
With `COc1cc(Cl)ccc1C(=O)NC1N=C(c2ccccc2)c2ccccc2NC1=O` (centres unmarked) [Example 88, 4-Chloro-2-methoxy-N-(2-oxo-5-phenyl-2,3-dihydro-1H-benzo[e][1,4]diazepin-3-yl)-benzamide], the IC50 in data set [1] (setting [4]) was found to be 0.3 µM. In data set [2], the “TC50 (2d)” value turned out to be 100 and the “TC50 (6d)” value is on record as 40.
On the same counts, the results for `COc1ccc(C(=O)NC2N=C(c3ccccc3)c3ccccc3NC2=O)cc1[N+](=O)[O-]` (centres unmarked) [Example 89, 4-Methoxy-3-nitro-N-(2-oxo-5-phenyl-2,3-dihydro-1H-benzo[e][1,4]diazepin-3-yl)benzamide] are 0.8 µM, greater than 100 and greater than 100.
